Counter-ions that a name gives are not always drawn.
System: U937 cells adhered to HUVEC stimulated by TNFα
Assay: Inhibitory effect on cell adhesion (U937 adhesion to TNFα-stimulated HUVEC)
Type: cell-based
Conditions: Homo sapiens, read-out: Inhibitory activity against cell adhesion, Percent inhibition (%); for inhibition at 1 µM: 1 μM test agent; for inhibition at 10 µM: 10 μM test agent
Method: (Inhibitory Effect on Cell Adhesion)
This test was conducted by reference to the method of Ross et al. (J. Biol. Chem., 267, 8537-8543 (1992)). More specifically, after human umbilical venous endothelial cells (HUVEC) were cultured on a 48-well plate to confluent growth, TNFα was added thereto. Upon elapsed time of 5 hours after the addition, U937, which is a human monocytic/histocytic cell fluorescence-labeled with PKH2 (product of Dainippon Pharmaceutical Co., Ltd.), was added in a proportion of 1×10^6 cells per well. After the plate was left at rest at room temperature for 1 hour, unadhered U937 was washed out and lysed in 1% Triton X-100 to measure a remaining fluorescence intensity (excitation wavelength: 480 nm; measuring wavelength: 530 nm). HUVEC and U937 were cultured in EGM-2 (product of Sanko Junyaku K.K.) and 10% FCS-containing RPMI1640, respectively. Each test agent was added to HUVEC upon the addition of TNFα and to U937 24 hours prior to the cell adhesion test. The inhibitory activity was calculated out according to the equation [100−(C−B)/(A−B)×100 (%)], wherein A is the number of U937 cells adhered to HUVEC stimulated by TNFα when no test agent was added, B is the number of U937 cells adhered to HUVEC not stimulated by TNFα when no test agent was added, and C is the number of U937 cells adhered to HUVEC stimulated by TNFα when the test agent was added. As control compounds, Test Compound 1 described in Japanese Patent Application Laid-Open No. 9-143075 and dilazep described in Japanese Patent Application Laid-Open No. 11-92382 were simultaneously evaluated.

COc1cc(C(=O)OCCCN2CCCN(CCCOC(=O)c3cc(OC)c(OC)c(OC)c3)CC2)cc(OC)c1OC [Dilazep, dilazep, reference compound]
inhibition at 1 µM: 12%
inhibition at 10 µM: 25%

COc1cc(-c2cc(CN3C[C@@H](C)N(Cc4ccnc(-c5cc(OC)c(OC)c(OC)c5)c4)[C@@H](C)C3)ccn2)cc(OC)c1OC [Example 1, cis-N,N′-bis[[2-(3,4,5-trimethoxyphenyl)pyridin-4-yl]methyl]-2,6-dimethylpiperazine tetrahydrochloride]
inhibition at 1 µM: 76%
inhibition at 10 µM: 78%

COc1cc(-c2cc(CN3C[C@H](C)N(Cc4ccnc(-c5cc(OC)c(OC)c(OC)c5)c4)C[C@H]3C)ccn2)cc(OC)c1OC [Example 2, trans-N,N′-bis[[2-(3,4,5-trimethoxyphenyl)-pyridin-4-yl]methyl]-2,5-dimethylpiperazine tetrahydrochloride]
inhibition at 1 µM: 42%
inhibition at 10 µM: 64%

COc1cc(-c2cc(CN3CCN(Cc4ccnc(-c5cc(OC)c(OC)c(OC)c5)c4)C(CO)C3)ccn2)cc(OC)c1OC (centres unmarked) [Example 3, N,N′-bis[[2-(3,4,5-trimethoxyphenyl)pyridin-4-yl]methyl]-2-hydroxymethylpiperazine dimaleate]
inhibition at 1 µM: 34%
inhibition at 10 µM: 90%

COc1cc(-c2cc(CN3CCN(Cc4ccnc(-c5cc(OC)c(OC)c(OC)c5)c4)C(=O)C3)ccn2)cc(OC)c1OC [Example 4, 2-oxo-N,N′-bis[[2-(3,4,5-trimethoxyphenyl)-pyridin-4-yl]methyl]piperazine 2.5 hydrochloride]
inhibition at 1 µM: 60%
inhibition at 10 µM: 79%

COc1cc(-c2cc(CN3CCN(Cc4ccnc(-c5cc(OC)c(OC)c(OC)c5)c4)[C@@H](C)C3=O)ccn2)cc(OC)c1OC [Example 5, (3S)-3-methyl-2-oxo-N,N′-bis[[2-(3,4,5-trimethoxyphenyl)pyridin-4-yl]methyl]piperazine 2.5 hydrochloride]
inhibition at 1 µM: 51%
inhibition at 10 µM: 85%

COc1cc(-c2cc(CN3CCN(Cc4ccnc(-c5cc(OC)c(OC)c(OC)c5)c4)[C@@H](C(C)C)C3=O)ccn2)cc(OC)c1OC [Example 6, (3S)-3-isopropyl-2-oxo-N,N′-bis[[2-(3,4,5-trimethoxyphenyl)pyridin-4-yl]methyl]piperazine sesqui-hydrochloride]
inhibition at 1 µM: 63%
inhibition at 10 µM: 77%

COc1cc(-c2cc(CN3CCN(Cc4ccnc(-c5cc(OC)c(OC)c(OC)c5)c4)[C@H](C(C)C)C3=O)ccn2)cc(OC)c1OC [Example 7, (3R)-3-isopropyl-2-oxo-N,N′-bis[[2-(3,4,5-trimethoxyphenyl)pyridin-4-yl]methyl]piperazine tri-hydrochloride]
inhibition at 1 µM: 51%
inhibition at 10 µM: 70%

COc1cc(-c2cc(CN3CCN(Cc4ccnc(-c5cc(OC)c(OC)c(OC)c5)c4)[C@@H](CC(C)C)C3=O)ccn2)cc(OC)c1OC [Example 8, (3S)-3-(2-methylpropyl)-2-oxo-N,N′-bis[[2-(3,4,5-trimethoxyphenyl)pyridin-4-yl]methyl]piperazine 2.5 hydrochloride]
inhibition at 1 µM: 63%
inhibition at 10 µM: 79%

COc1cc(-c2cc(CN3CCN(Cc4ccnc(-c5cc(OC)c(OC)c(OC)c5)c4)[C@@H](Cc4ccccc4)C3=O)ccn2)cc(OC)c1OC [Example 9, (3S)-3-benzyl-2-oxo-N,N′-bis[[2-(3,4,5-trimethoxyphenyl)pyridin-4-yl]methyl]piperazine sesqui-hydrochloride]
inhibition at 1 µM: 38%
inhibition at 10 µM: 86%
